Measurements as given in PubChem BioAssay (NCI).
Several values for one entry are separate records, joined by “and”; a condition that tells them apart may be missing. Equal entries are not always repeated.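 In this assay, cells in 96-well plates receive the compound at five concentrations for 48 hours. Endpoints are linearly interpolated between the surrounding concentrations. Abbreviation: GI50, concentration required for 50% inhibition of growth. TGI: concentration producing complete growth inhibition.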

Legend:
Assay in all cases: NCI-60 cell line screen, 48 h
BT-549 breast = test system: BT-549 breast
HOP-92 NSCLC = test system: HOP-92 NSCLC
MALME-3M melanoma = test system: MALME-3M melanoma
NCI-H23 lung = test system: NCI-H23 lung
NCI/ADR-RES ovarian = test system: NCI/ADR-RES ovarian
OVCAR-5 ovarian = test system: OVCAR-5 ovarian
RXF 393 renal = test system: RXF 393 renal
SF-295 CNS = test system: SF-295 CNS
SK-OV-3 ovarian = test system: SK-OV-3 ovarian
SW-620 colon = test system: SW-620 colon

SMILES | GI50 (BT-549 breast) [µM] | TGI (BT-549 breast) [µM] | GI50 (HOP-92 NSCLC) | TGI (HOP-92 NSCLC) | GI50 (MALME-3M melanoma) | TGI (MALME-3M melanoma) | GI50 (NCI-H23 lung) | TGI (NCI-H23 lung) | GI50 (NCI/ADR-RES ovarian) [µM] | TGI (NCI/ADR-RES ovarian) [µM] | GI50 (OVCAR-5 ovarian) [µM] | TGI (OVCAR-5 ovarian) | GI50 (RXF 393 renal) | TGI (RXF 393 renal) | GI50 (SF-295 CNS) | TGI (SF-295 CNS) | GI50 (SK-OV-3 ovarian) | TGI (SK-OV-3 ovarian) | GI50 (SW-620 colon) | TGI (SW-620 colon)
O=C1/C(=C/c2ccc(Cl)cc2)CN(C(=O)CCN2CCC(=NO)CC2)C/C1=C\c1ccc(Cl)cc1 | 1.47 | 2.85 | 1.64 µM | 3.54 µM | 1.5 µM | 3.12 µM | 1.13 µM | 2.63 µM | 0.93 | 3.75 | 1.36 | 2.85 µM | 1.46 µM | 2.87 µM | 1.46 µM | 2.86 µM | 1.94 µM | 4.21 µM | 0.179 µM | 0.467 µM
O=C1C(Br)=C(Br)C(=O)c2ccccc21 | – | 15.3 | 13.4 µM and 1.73 µM | 27 µM and 4.59 µM | 16.8 µM and 6.59 µM | 31 µM and 16 µM | 17.2 µM and 6.6 µM | 33.5 µM and 17.6 µM | – | 66.8 | – | 41.7 µM and 22.9 µM | 16.2 µM and 5.85 µM | 29.9 µM and 15.6 µM | 91.1 µM and 14.6 µM | > 100 µM and 28.6 µM | 16.1 µM and 5.4 µM | 31.1 µM and 13.2 µM | 16 µM and 2.28 µM | 29.5 µM and 8.64 µM
O=C(Nc1ccc(Oc2ccc(NC(=O)Nc3ccc([N+](=O)[O-])cc3)cc2)cc1)Nc1ccc([N+](=O)[O-])cc1 | 2.06 | 7.36 | – | 2.07 µM | 1.93 µM | 6.81 µM | 1.23 µM | 30.8 µM | 3.88 | > 91.3 | 3.59 | > 100 µM | 2.94 µM | > 24.4 µM | 1.17 µM | 17.9 µM | 2.27 µM | 7.51 µM | 2.51 µM | > 56.3 µM
O=C(Cn1c(C(=O)c2ccc(Cl)cc2)nc(-c2ccccc2)c1-c1ccccc1)c1ccc(Cl)cc1 | > 100 | > 100 | 23.9 µM | > 100 µM | > 100 µM | > 100 µM | > 100 µM | > 100 µM | > 100 | > 100 | > 100 | > 100 µM | > 100 µM | > 100 µM | > 100 µM | > 100 µM | > 100 µM | > 100 µM | > 100 µM | > 100 µM
CCOC(=O)Cn1c(-c2nonc2NC(=O)c2ccccc2F)nc2ccccc21 | 5.91 | > 93.7 | 22.1 µM | 67.9 µM | 26.6 µM | > 87 µM | > 70.1 µM | > 100 µM | 4.74 | > 100 | 26.3 | > 100 µM | 5.67 µM | > 62 µM | 2.77 µM | > 55.2 µM | 21.3 µM | > 100 µM | 1.4 µM | > 100 µM
COc1cc(OC)c(F)c(COc2cnc(Nc3cnn(CCO)c3)nc2)c1F | 0.177 | > 100 | 0.767 µM | 5.4 µM | 0.923 µM | 7.66 µM | 1.86 µM | > 100 µM | 0.726 | > 100 | 2.08 | > 100 µM | 0.188 µM | 2.44 µM | 0.649 µM | > 29.8 µM | 0.845 µM | 5.67 µM | 0.412 µM | > 100 µM
O=C1/C(=C/c2ccc(Cl)cc2)CCC1CN1CCOCC1 (stereo unspecified) | – | 26 | – | 16.1 µM | – | 20.3 µM | – | 20.9 µM | – | 22.5 | – | 45.7 µM | – | 11.2 µM | – | 38.1 µM | – | 31.9 µM | – | 6.71 µM
COC1C(CO)OC(n2c3c(Cl)cccc3c3c4c(c5c6cccc(Cl)c6[nH]c5c32)C(=O)NC4=O)C(O)C1O (stereo unspecified) | – | 12.4 | – | 4.88 µM | – | 1.12 µM | – | 2.72 µM | – | > 100 | – | > 41.9 µM | – | 4.95 µM | – | 4.32 µM | – | > 24.9 µM | – | > 100 µM
